The subject of test [1] is methicillin-resistant Staphylococcus aureus (MRSA). Description: Minimum inhibitory concentration (MIC) against MRSA clinical isolate. The following applies: clinical isolate of MRSA from the Massachusetts General Hospital. It is filed as cell-based. The source says: Compounds of this invention can have useful activity against a variety of pathogenic microorganisms. The in vitro activity of compounds of this invention can be assessed by standard testing procedures such as the determination of minimum inhibitory concentration (MIC) by agar dilution as described in “Approved Standard. Methods for Dilution Antimicrobial Susceptibility Tests for Bacteria That Grow Aerobically”, 3rd. ed., published 1993 by the National Committee for Clinical Laboratory Standards, Villanova, Pa., USA. Minimum inhibitory concentration (MIC) refers to the lowest concentration of drug (μg/mL) that inhibits visible growth of the organism. Lower MIC values indicate a higher antibacterial activity. Typically, compounds of present invention have useful potency against Gram-positive or Gram-negative pathogens with MIC values of ≦16 μg/mL. The useful activity of compounds of the present invention against a clinical isolate of methicillin-resistant Staphylococcus aureus (MRSA; from the Massachusetts General Hospital, USA) is illustrated by the MIC data of Table 1.

The subject of test [2] is human CD34+ bone marrow cells. Description: Myelosuppressive potential: bone marrow CD34+ cell growth inhibition, luminescence assay. Type of test: cell-based. The following applies: 9-10 days at 37° C., Linezolid value of side-by-side test in parenthesis; for IC50: Homo sapiens, CD34+ cell. The method, then:
Myelosuppressive potential (hematopoietic or bone marrow toxicity) was evaluated using human CD34^+ bone marrow cells, generally following methods described by Leach in International Patent Publication No. WO 2006/097828. Thus, an oxazolidinone compound was incubated with fresh human bone marrow cells for 9-10 days at 37° C. in 5% CO2 atmosphere. At end of the incubation period, the bone marrow toxicity was accessed by measuring inhibition (IC50, μg/mL) of CD34^+ cell growth using a luminescence assay. Lower IC50 value indicates a higher myelosuppression potential with enhanced probability of undesired adverse effects in vivo, while a higher IC50 value indicates reduced bone marrow toxicity. The CD34^+ inhibition data for representative compounds of this invention are illustrated in the Table 2 below.

Test [3] deals with T1, Human monoamine oxidase (MOA) A type enzyme (Homo sapiens, UniProt P21397).
T1 construct: purchased BD Gentest
T1 sequence (P21397 1-527): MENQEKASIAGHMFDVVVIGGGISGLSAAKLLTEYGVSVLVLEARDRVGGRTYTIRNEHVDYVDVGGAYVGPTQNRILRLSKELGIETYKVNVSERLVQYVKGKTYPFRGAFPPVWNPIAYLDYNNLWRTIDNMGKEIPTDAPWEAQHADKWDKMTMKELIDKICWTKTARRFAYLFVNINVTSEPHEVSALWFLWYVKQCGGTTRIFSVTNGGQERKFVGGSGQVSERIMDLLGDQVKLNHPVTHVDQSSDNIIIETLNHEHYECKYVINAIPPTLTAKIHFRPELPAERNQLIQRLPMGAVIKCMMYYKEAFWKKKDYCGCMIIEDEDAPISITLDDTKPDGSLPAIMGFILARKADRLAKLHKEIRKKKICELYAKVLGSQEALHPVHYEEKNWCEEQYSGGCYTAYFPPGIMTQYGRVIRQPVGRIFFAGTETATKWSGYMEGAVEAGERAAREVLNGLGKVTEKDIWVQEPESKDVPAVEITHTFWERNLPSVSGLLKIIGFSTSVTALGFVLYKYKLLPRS
Description: MAO-Glo monoamine oxidase A enzyme inhibition assay. Type of test: biochemical. The following applies: human MAO A enzyme (BD Gentest), MAO-Glo kit; Linezolid value of side-by-side test in parenthesis. The method, then: Human monoamine oxidase (MOA) A type enzyme inhibition activity for select compounds was measured using a commercial MAO assay kit MAO-Glo™ from Promega Co. (USA). The assay was performed as described in the company's technical bulletin “MAO-Glo™ Assay”. The protocol involves an incubation of the MAO A enzyme (BD Gentest™) with a luminogenic MAO substrate to produce an enzymatic product which is converted to luciferin by a coupled reaction. The released luciferin undergoes further transformation to generate light that is detected and measured. The amount of the light is directly proportional to the activity of MAO. Percent inhibition at several concentrations is established relative to the uninhibited control rate, and the IC50 (μg/mL) values are calculated. […] The MAO inhibition data for select compound of this invention are illustrated in the Table 2 below.

Converted amounts (≈) assume the structure as drawn. “And” between values parts separate entries of the source, which are not always exact repeats. Identical values can stand only once.

Consider `O=C1C=CN(c2c(F)cc(N3C[C@H](CO)OC3=O)c(F)c2F)CC1` [Example 1], for which the MIC in test [1] amounted to 4 µg/mL (≈ 11.7 µM).
With `CC(=O)NC[C@H]1CN(c2cc(F)c(N3C=CC(=O)CC3)c(F)c2F)C(=O)O1` [Example 2], the IC50 in test [2] is 13.2 µg/mL (≈ 34.4 µM); in test [3] it was 148 µM. In test [1], the MIC turned out to be 2 µg/mL (≈ 5.22 µM).
As to `O=C1C=CN(c2c(F)cc(N3C[C@H](Cn4ccnn4)OC3=O)c(F)c2F)CC1` [Example 3], the MIC in test [1] was found to be 1 µg/mL (≈ 2.54 µM).
For `COC(=O)NC[C@H]1CN(c2cc(F)c(N3C=CC(=O)CC3)c(F)c2F)C(=O)O1` [Example 4], the IC50 in test [2] is 17.7 µg/mL (≈ 44.3 µM); in test [3], 54.3 µM. In test [1], the minimum inhibitory concentration (MIC) stood at 2 µg/mL (≈ 5.01 µM).
The matching figures for `O=C1C=CN(c2c(F)cc(N3C[C@H](CNc4ccon4)OC3=O)c(F)c2F)CC1` [Example 5]: 15.7 µg/mL (≈ 38.4 µM), 30.1 µM and 1 µg/mL (≈ 2.45 µM).
In test [1], `Cc1cc(NC[C@H]2CN(c3cc(F)c(N4C=CC(=O)CC4)c(F)c3F)C(=O)O2)no1` [Example 6] registered a minimum inhibitory concentration (MIC) of 4 µg/mL (≈ 9.47 µM).
For the compound `CCC(=O)NC[C@H]1CN(c2cc(F)c(N3C=CC(=O)CC3)c(F)c2F)C(=O)O1` [Example 7], it took 2 µg/mL (≈ 5.03 µM) to inhibit growth in test [1] (MIC).
Same read-out and setting: the result for `Cc1cn(C[C@H]2CN(c3cc(F)c(N4C=CC(=O)CC4)c(F)c3F)C(=O)O2)nn1` [Example 8] reads 4 µg/mL (≈ 9.82 µM); that for `CC(=O)NC[C@H]1CN(c2ccc(N3C=CC(=O)CC3)c(F)c2F)C(=O)O1` [Example 9], 1 µg/mL (≈ 2.74 µM).
Compound `O=C1C=CN(c2ccc(N3C[C@H](CO)OC3=O)c(F)c2F)CC1` [Example 10] yielded a minimal inhibitory concentration (MIC) in test [1] of 2 µg/mL (≈ 6.17 µM).
Still for that read-out and setting: for `O=C1C=CN(c2ccc(N3C[C@H](Cn4ccnn4)OC3=O)c(F)c2F)CC1` [Example 11] the value was 1 µg/mL (≈ 2.66 µM); for `Cc1cn(C[C@H]2CN(c3ccc(N4C=CC(=O)CC4)c(F)c3F)C(=O)O2)nn1` [Example 12], 4 µg/mL (≈ 10.3 µM).
Take `COC(=O)NC[C@H]1CN(c2ccc(N3C=CC(=O)CC3)c(F)c2F)C(=O)O1` [Example 13]: the IC50 in test [2] was 6.3 µg/mL (≈ 16.5 µM); in test [3], 44.8 µM. Also, 1 µg/mL (≈ 2.62 µM) was the least that counted as inhibitory in test [1] (MIC).
Take `O=C1C=CN(c2ccc(N3C[C@H](CNc4ccon4)OC3=O)c(F)c2F)CC1` [Example 14]: the lowest concentration to inhibit growth in test [1] (MIC) was 0.25 µg/mL (≈ 0.64 µM).
In test [1], `CCC(=O)NC[C@H]1CN(c2ccc(N3C=CC(=O)CC3)c(F)c2F)C(=O)O1` [Example 15] came in with an MIC of 2 µg/mL (≈ 5.27 µM).
The same measure, in the same setting: the result for `O=C1C=CN(c2ccc(N3C[C@H](COc4ccon4)OC3=O)c(F)c2F)CC1` [Example 16] reads 4 µg/mL (≈ 10.2 µM); that for `CC(=O)NC[C@H]1CN(c2cc(F)c(N3C=CC(=O)CC3)cc2F)C(=O)O1` [Example 17], 4 µg/mL (≈ 10.9 µM).
On the same count and under the same terms, for `O=C1C=CN(c2cc(F)c(N3C[C@H](Cn4ccnn4)OC3=O)cc2F)CC1` [Example 18] the value was 4 µg/mL (≈ 10.7 µM).
On the same count and under the same terms, for `N#Cc1cn(C[C@H]2CN(c3cc(F)c(N4C=CC(=O)CC4)c(F)c3F)C(=O)O2)nn1` [Example 19] the value was 4 µg/mL (≈ 9.56 µM).
With `O=C1C=CN(c2c(F)cc(N3C[C@H](Cn4cc(F)nn4)OC3=O)c(F)c2F)CC1` [Example 20], the MIC in test [1] was found to be 4 µg/mL (≈ 9.72 µM).
In test [1], `Cn1nnc(-c2ccc(-c3cc(F)c(N4C[C@H](Cn5ccnn5)OC4=O)cc3F)cn2)n1` [Example 21] had an MIC of 2 µg/mL (≈ 4.55 µM).
In test [1], `Cn1nnnc1-c1ccc(-c2ccc(N3C[C@H](CO)OC3=O)c(F)c2F)cn1` [Example 22] returned a minimum inhibitory concentration (MIC) of 1 µg/mL (≈ 2.58 µM).
Consider `COC(=O)NC[C@H]1CN(c2ccc(-c3ccc(-c4nnnn4C)nc3)c(F)c2F)C(=O)O1` [Example 23], for which inhibition of growth in test [1] (MIC) required 1 µg/mL (≈ 2.25 µM).
Turning to `O=C1C=CN(c2ccc(N3C[C@H](Cn4ccnn4)OC3=O)cc2F)CC1` [Example 25, reference compound], the concentration for half-maximal inhibition (IC50) in test [2] was 2.6 µg/mL (≈ 7.28 µM); in test [3], 5.04 µM.
For `CC(=O)NC[C@H]1CN(c2cc(F)c(N3CCOCC3)c(F)c2F)C(=O)O1` [Example 26, reference compound], in test [1], the lowest concentration to inhibit growth (MIC) was 2 µg/mL (≈ 5.36 µM).
With `CC(=O)NC[C@H]1CN(c2ccc(N3CCOCC3)c(F)c2)C(=O)O1` [Linezolid, linezolid, reference compound], the “CD34 IC50” value in test [2] is “Range 7.9-14.0 μg/mL”; in test [2] (listed as Lin.) it was 14.0 µg/mL and 8.1 µg/mL. Further, the results for the IC50 in test [2] and in test [3] were 7.9 µg/mL (≈ 23.4 µM) and 11.3 µM, respectively. Moreover, the MIC in test [1] was found to be 2 µg/mL (≈ 5.93 µM).

The MIC is the smallest concentration in the dilution series that meets the test's criterion for growth inhibition. A lower MIC goes with inhibition by little substance. Broadly, the IC50 is the concentration that gives 50% inhibition.

Values taken from patent publication US8178683B2, “Antimicrobial ortho-fluorophenyl oxazolidinones for treatment of bacterial infections” (Micurx Pharmaceuticals, Inc., priority 2007, dated 2012).
